Holding throughout (assay): growth of human tumour cells (NCI), 48 h
In experiment [1] the test system is SNB-75 CNS.
The test system of experiment [2] is RXF 393 renal.
For experiment [3], the system named is 786-0 renal.
For experiment [4], the system named is MOLT-4 leukemia.
The subject of experiment [5] is MDA-MB-231 breast.
In experiment [6] the test system is T-47D breast.
In experiment [7] the test system is A549 NSCLC.
The test system of experiment [8] is DU-145 prostate.
For experiment [9], the system named is SR leukemia.
In experiment [10] the test system is HT29 colon.

Structures are written as SMILES.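 Each compound was tested at five concentrations against cells in 96-well plates for 48 hours. GI50: concentration for 50% inhibition of growth. TGI: total growth inhibition.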

As to `Cc1cccc2c(=O)c3c(sc12)c(NCCCN)nc1ccccc13`, the GI50 in experiment [1] was 1020 nM; in experiment [2], 1480 nM; in experiment [3], 1690 nM; in experiment [4], 1350 nM; in [5], 1520 nM; in [6], 1500 nM. For the same compound, the GI50 in experiment [7] was 880 nM; in [8], 1390 nM. In addition, the TGI came to 2.31 µM in experiment [1]; 2.87 µM in experiment [2]; 3.28 µM in experiment [3]; 3.06 µM in [4]; 3.03 µM in experiment [5]; 3.44 µM in [6]. The TGI in [7] is 2.45 µM; in experiment [8] it was 2.78 µM.

With `COc1cc(/C=C/C(=O)c2ccccc2O)ccc1OCCCOc1cc2c(cc1OC)C(=O)N1CCC[C@H]1C=N2`, the GI50 in experiment [9] was 18.4 nM; in experiment [1] it was 46.8 nM; in [3], 25 nM; in [4] it was 17 nM; in experiment [5], 56.4 nM; in experiment [6], 152 nM. In addition, the GI50 was 31.5 nM in experiment [7], 35.1 nM in experiment [8] and 34.4 nM in experiment [10]. The TGI in experiment [9] is 0.0523 µM; in experiment [1], 0.222 µM; in experiment [3], 1.53 µM; in [4] it was 0.0572 µM; in experiment [5], 0.335 µM; in experiment [7] it was 1.24 µM. The TGI is 0.452 µM in [8] and above 100 µM in experiment [10].

Take `C/C(COc1ccc2oc(-c3ccccc3)cc(=O)c2c1)=N\O`: the GI50 in [1] is above 100000 nM; in experiment [2], above 100000 nM; in experiment [3], 9050 nM; in [4], 89200 nM; in experiment [5] it was 14100 nM; in experiment [6], 16200 nM. Also, the figures for the GI50 in experiment [7], in [8] and in experiment [10] were 45400 nM, 48500 nM and 22700 nM, respectively. Also, the TGI is above 100 µM in experiment [1]; above 100 µM in [2]; above 100 µM in experiment [3]; above 100 µM in experiment [4]; 36.4 µM in experiment [5]; above 100 µM in experiment [6]. The TGI in experiment [7], in experiment [8] and in experiment [10] was above 100 µM throughout.

Take `CCCCCCCCCCCCCCCCCC1=NC(C)(C)CN1C(C)(C)CO`: the GI50 was 1470 nM in [1]; 1110 nM in [2]; 1450 nM in experiment [3]; 1450 nM in experiment [4]; 1290 nM in [5]; 2300 nM in experiment [6]. The GI50 is 1680 nM in [7], 1610 nM in experiment [8] and 1440 nM in [10]. Further, the TGI in [1] amounted to 3.13 µM; in [2], 2.36 µM; in experiment [3], 2.89 µM; in experiment [4] it was 4.05 µM; in experiment [5], 3.16 µM; in [6], 5.55 µM. In addition, the TGI in experiment [7] turned out to be 3.31 µM; in experiment [8] it was 3.03 µM; in [10], 3.44 µM.

Regarding `Cc1cc2[nH]c(=O)c3c4ncccc4cn3c2cc1C`, the GI50 in experiment [9] was 2170 nM; in experiment [1], 3300 nM; in [3], 3060 nM; in experiment [4] it was 3540 nM; in experiment [5], 4640 nM; in experiment [6], 2370 nM. The values for the GI50 in [7], in experiment [8] and in experiment [10] were 4820 nM, 4130 nM and 2980 nM, respectively. In addition, the TGI was 6.16 µM in [9]; 15.7 µM in experiment [1]; 8.42 µM in experiment [3]; above 100 µM in [4]; above 100 µM in experiment [5]; above 100 µM in experiment [6]. For the same compound, the TGI in [7], in experiment [8] and in experiment [10] was above 100 µM throughout.

As to `CN1CCN(c2ccncc2S(=O)(=O)N2CCN(C)CC2)CC1`, the TGI in [1], in experiment [2], in [3], in experiment [5], in experiment [6] and in [7] was above 100 µM throughout. The TGI in [8] and in [10] was above 100 µM in each case.

On to `CO[C@H]1/C=C/O[C@@]2(C)Oc3c(C)c(O)c4c(O)c(c(/C=N/N5C(C)CN(Cc6ccc(C#N)cc6)CC5C)c(O)c4c3C2=O)NC(=O)/C(C)=C\C=C\[C@H](C)[C@H](O)[C@@H](C)[C@@H](O)[C@@H](C)[C@H](OC(C)=O)[C@@H]1C` (some centres undefined), for which the GI50 in experiment [1] was 7250 nM; in experiment [2], 8880 nM; in experiment [3], 8790 nM; in [5], 7490 nM; in experiment [6], 6710 nM; in experiment [7], 6810 nM. The GI50 in experiment [8] was 8160 nM; in [10], 6870 nM. The TGI in experiment [1] was found to be 18.5 µM; in experiment [2] it was 19.4 µM; in experiment [3], 16.8 µM; in [5] it was 14.9 µM; in experiment [6], 26.2 µM; in experiment [7] it was 17.1 µM. Also, the TGI in experiment [8] was 15.3 µM; in [10] it was 14.4 µM.

In the case of `FC(F)(F)c1cccc(Oc2ccc(Nc3ncnc4ccc(OCCCN5CCOCC5)cc34)cc2Cl)c1`, the GI50 in experiment [1] is 1450 nM; in [2], 1760 nM; in [3], 1510 nM; in experiment [4], 1970 nM; in [5], 1800 nM; in experiment [6], 1290 nM. Moreover, the results for the GI50 in experiment [7], in experiment [8] and in experiment [10] were 1880 nM, 2420 nM and 1750 nM, respectively. Also, the TGI in experiment [1] stood at 7.33 µM; in experiment [2], 4.03 µM; in experiment [3] it was 3.11 µM; in experiment [4] it was 6.41 µM; in [5], 3.72 µM; in experiment [6] it was 6.35 µM. Further, the TGI was 5.64 µM in experiment [7], 10.3 µM in [8] and 3.93 µM in experiment [10].

(Values after PubChem BioAssay (NCI).)
